Patent publication US10457687B2, “Aminoacid derivatives, a process for their preparation and pharmaceutical compositions containing them” (LES LABORATOIRES SERVIER, priority 2015, dated 2019)

Experiments:
[1] = test system: H929 multiple myeloma tumour line; test: In vitro cytotoxicity, MTT assay, 48 hours; assay type: cell-based; conditions: H929 cells, 48 hours exposure, cell viability
Experimental: The cytotoxicity studies were carried out on the H929 multiple myeloma tumour line.
The cells are distributed onto microplates and exposed to the test compounds for 48 hours.

Mcl-1 protein = Mcl-1 protein (Homo sapiens, UniProt Q07820); test: Inhibition of Mcl-1 by the fluorescence polarisation technique (Method 1 or Method 2); assay type: binding; conditions: for IC50: fluorescence polarisation, Fluorescein labelled ligand, Method 1 (not underlined) or Method 2 (underlined), read-out: IC50 (μM) Mcl-1 FP
Procedure, shortened: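 Fluorescence polarisation competition of 11-point compound dilutions (5% DMSO final) against fluorescein-labelled ligand for Mcl-1. Method 1: 1 nM ligand, 5 nM protein in 10 mM HEPES, 150 mM NaCl, 0.05% Tween 20, pH 7.4; Method 2: 10 nM ligand, 10 nM protein in 20 mM Na2HPO4, 1 mM EDTA, 50 mM NaCl, pH 7.4.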

[2] = partial inhibitors, @ 10 μM test compound

Mcl-1 protein, sequence (Q07820 whole entry): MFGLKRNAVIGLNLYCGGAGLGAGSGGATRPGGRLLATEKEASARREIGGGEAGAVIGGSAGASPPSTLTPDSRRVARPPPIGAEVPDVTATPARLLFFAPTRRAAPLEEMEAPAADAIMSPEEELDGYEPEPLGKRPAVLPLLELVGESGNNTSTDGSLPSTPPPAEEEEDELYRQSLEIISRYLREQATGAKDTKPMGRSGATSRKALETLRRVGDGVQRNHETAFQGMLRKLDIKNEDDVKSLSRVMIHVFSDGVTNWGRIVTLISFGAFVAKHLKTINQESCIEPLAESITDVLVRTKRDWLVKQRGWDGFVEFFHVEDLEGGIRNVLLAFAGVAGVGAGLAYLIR

| SMILES | IC50 (Mcl-1 protein) [µM] | IC50 ([1]; Homo sapiens, NCI-H929) [nM] | other results |
| --- | --- | --- | --- |
| Cc1c(-c2c(-c3ccsc3)sc3ncnc(NC(Cc4ccccn4)C(=O)O)c23)ccc(OCCN2CCN(C)CC2)c1Cl [Example 29, N-[(5Sa)-5-{3-chloro-2-methyl-4-[2-(4-methylpiperazin-1-yl)ethoxy]phenyl}-6-(thiophen-3-yl)thieno[2,3-d]pyrimidin-4-yl]-3-pyridin-2-yl-D-alanine] | 0.063 | 2520 |  |
| Cc1c(-c2c(-c3ccsc3)sc3ncnc(N[C@H](Cc4ccccn4)C(=O)O)c23)ccc(OCCN2CCN(C)CC2)c1Cl [Example 30, N-[(5Ra)-5-{3-chloro-2-methyl-4-[2-(4-methylpiperazin-1-yl)ethoxy]phenyl}-6-(thiophen-3-yl)thieno[2,3-d]pyrimidin-4-yl]-3-pyridin-2-yl-D-alanine] |  |  | IC50 [1]: > 3750 nM; percentage fluorescence polarisation inhibition, Mcl-1 FP (Mcl-1 protein; [2]): 68.2% @ 10 μM |
| CC#Cc1sc2ncnc(NC(Cc3ccccc3OCc3ccnn3CC(F)(F)F)C(=O)O)c2c1-c1ccc(OCCN(C)C)c(Cl)c1C [Example 46, N-[(5Sa)-5-{3-chloro-4-[2-(dimethylamino)ethoxy]-2-methylphenyl}-6-(prop-1-yn-1-yl)thieno[2,3-d]pyrimidin-4-yl]-2-{[1-(2,2,2-trifluoroethyl)-1H-pyrazol-5-yl]methoxy}-D-phenylalanine] | 0.024 | 166 |  |
| Cc1c(-c2c(-c3ccsc3)sc3ncnc(NC(CC4CCCCC4)C(=O)O)c23)ccc(OCCN2CCN(C)CC2)c1Cl [Example 32, N-[(5Sa)-5-{3-chloro-2-methyl-4-[2-(4-methylpiperazin-1-yl)ethoxy]phenyl}-6-(thiophen-3-yl)thieno[2,3-d]pyrimidin-4-yl]-3-cyclohexyl-D-alanine] | 0.007 | > 3750 |  |
| COc1ccccc1C[C@@H](Nc1ncnc2sc(-c3ccc(F)cc3)c(-c3ccc(OCCN4CCN(C)CC4)c(Cl)c3C)c12)C(=O)O [Example 2, N-[(5Ra)-5-{3-chloro-2-methyl-4-[2-(4-methylpiperazin-1-yl)ethoxy]phenyl}-6-(4-fluorophenyl)thieno[2,3-d]pyrimidin-4-yl]-2-methoxy-D-phenylalanine] |  |  | IC50 [1]: > 600 nM; percentage fluorescence polarisation inhibition, Mcl-1 FP (Mcl-1 protein; [2]): 56.9% @ 10 μM |
| Cc1c(-c2c(-c3ccsc3)sc3ncnc(NC(Cc4ccccc4F)C(=O)O)c23)ccc(OCCN2CCN(C)CC2)c1Cl [Example 34, N-[(5Sa)-5-{3-chloro-2-methyl-4-[2-(4-methylpiperazin-1-yl)ethoxy]phenyl}-6-(thiophen-3-yl)thieno[2,3-d]pyrimidin-4-yl]-2-fluoro-D-phenylalanine] | 0.726 | 4270 |  |
| CC#Cc1sc2ncnc(NC(Cc3ccccc3OCc3ccnn3CC(F)(F)F)C(=O)O)c2c1-c1ccc(OCCN2CCN(C)CC2)c(Cl)c1C [Example 42, N-[(5Sa)-5-{3-chloro-2-methyl-4-[2-(4-methylpiperazin-1-yl)ethoxy]phenyl}-6-(prop-1-yn-1-yl)thieno[2,3-d]pyrimidin-4-yl]-2-{[1-(2,2,2-trifluoroethyl)-1H-pyrazol-5-yl]methoxy}-D-phenylalanine] | 0.01 | 61 |  |
| Cc1c(-c2c(-c3ccco3)sc3ncnc(N[C@H](Cc4ccccc4Cl)C(=O)O)c23)ccc(OCCN2CCN(C)CC2)c1Cl (single isomer, unassigned) [Example 10, 2-chloro-N-[5-{3-chloro-2-methyl-4-[2-(4-methylpiperazin-1-yl)ethoxy]phenyl}-6-(furan-2-yl)thieno[2,3-d]pyrimidin-4-yl]-D-phenylalanine] |  | > 3750 | inhibition at 3.3 µM (Mcl-1 protein; partial inhibitors, @ 3.3 μM test compound, read-out: percentage fluorescence polarisation inhibition, Mcl-1 FP): 72.8% |
| COC(=O)c1oc(-c2sc3ncnc(NC(Cc4ccccc4OC)C(=O)O)c3c2-c2ccc(OCCN3CCN(C)CC3)c(Cl)c2C)cc1C [Example 66, N-((5Ra)-5-{3-chloro-2-methyl-4-[2-(4-methylpiperazin-1-yl)ethoxy]phenyl}-6-[5-(methoxycarbonyl)-4-methylfuran-2-yl]thieno[2,3-d]pyrimidin-4-yl)-2-methoxy-D-phenylalanine] |  |  | IC50 [1]: > 3750 nM; percentage fluorescence polarisation inhibition, Mcl-1 FP (Mcl-1 protein; [2]): 36.9% @ 10 μM |
| CCCCn1nccc1COc1ccccc1C[C@@H](Nc1ncnc2sc(-c3ccc(F)o3)c(-c3ccc(OCCN4CCN(C)CC4)c(Cl)c3C)c12)C(=O)O [Example 23, 2-[(1-butyl-1H-pyrazol-5-yl)methoxy]-N-[(5Ra)-5-{3-chloro-2-methyl-4-[2-(4-methylpiperazin-1-yl)ethoxy]phenyl}-6-(5-fluorofuran-2-yl)thieno[2,3-d]pyrimidin-4-yl]-D-phenylalanine] |  |  | IC50 [1]: > 600 nM; percentage fluorescence polarisation inhibition, Mcl-1 FP (Mcl-1 protein; partial inhibitors, @ 1 μM test compound): 41.27% @ 1 μM |
| Cc1c(-c2c(-c3ccsc3)sc3ncnc(NC(Cc4ccccn4)C(=O)O)c23)ccc(OCCN2CCOCC2)c1Cl [Example 36, N-[(5Sa)-5-{3-chloro-2-methyl-4-[2-(morpholin-4-yl)ethoxy]phenyl}-6-(thiophen-3-yl)thieno[2,3-d]pyrimidin-4-yl]-3-pyridin-2-yl-D-alanine] | 0.086 | > 7500 |  |
| Cc1c(-c2c(-c3ccco3)sc3ncnc(NC(Cc4ccccc4OCc4ccccn4)C(=O)O)c23)ccc(OCCN2CCN(C)CC2)c1Cl [Example 13, N-[(5Ra)-5-{3-chloro-2-methyl-4-[2-(4-methylpiperazin-1-yl)ethoxy]phenyl}-6-(furan-2-yl)thieno[2,3-d]pyrimidin-4-yl]-2-(pyridin-2-ylmethoxy)-D-phenylalanine] |  |  | IC50 [1]: > 3750 nM; percentage fluorescence polarisation inhibition, Mcl-1 FP (Mcl-1 protein; [2]): 58% @ 10 μM |
| CCc1sc2ncnc(N[C@H](Cc3ccccc3)C(=O)O)c2c1-c1cccc2c1cnn2C [Example 87, N-[6-ethyl-5-(1-methyl-1H-indazol-4-yl)thieno[2,3-d]pyrimidin-4-yl]-D-phenylalanine] |  |  | inhibition at 7.4 µM (Mcl-1 protein; partial inhibitors, @ 7.4 μM test compound, read-out: percentage fluorescence polarisation inhibition, Mcl-1 FP): 62.6% |

Now from value to compound, other results behind:

| IC50 (Mcl-1 protein) [µM] | SMILES | IC50 ([1]; Homo sapiens, NCI-H929) [nM] | other results |
| --- | --- | --- | --- |
| 0.011 | COc1ccccc1-c1nccc(COc2ccccc2CC(Nc2ncnc3sc(-c4ccc(F)o4)c(-c4ccc(OCCN5CCN(C)CC5)c(Cl)c4C)c23)C(=O)O)n1 [Example 27, N-[(5Sa)-5-{3-chloro-2-methyl-4-[2-(4-methylpiperazin-1-yl)ethoxy]phenyl}-6-(5-fluorofuran-2-yl)thieno[2,3-d]pyrimidin-4-yl]-2-{[2-(2-methoxyphenyl)pyrimidin-4-yl]methoxy}-D-phenylalanine] | 2.09 |  |
| 0.012 | Cc1c(-c2c(-c3ccc(F)o3)sc3ncnc(NC(Cc4ccccc4OCc4ccnc(OCC(F)(F)F)n4)C(=O)O)c23)ccc(OCCN2CCN(C)CC2)c1Cl [Example 26, N-[(5Sa)-5-{3-chloro-2-methyl-4-[2-(4-methylpiperazin-1-yl)ethoxy]phenyl}-6-(5-fluorofuran-2-yl)thieno[2,3-d]pyrimidin-4-yl]-2-{[2-(2,2,2-trifluoroethoxy)pyrimidin-4-yl]methoxy}-D-phenylalanine] | 6.36 |  |
| 0.057 | Cc1c(-c2c(-c3ccc(F)o3)sc3ncnc(NC(Cc4ccccc4OCC(F)(F)F)C(=O)O)c23)ccc(OCCN2CCN(C)CC2)c1Cl [Example 17, N-[(5Sa)-5-{3-chloro-2-methyl-4-[2-(4-methylpiperazin-1-yl)ethoxy]phenyl}-6-(5-fluorofuran-2-yl)thieno[2,3-d]pyrimidin-4-yl]-2-(2,2,2-trifluoroethoxy)-D-phenylalanine] | 294 |  |
| 0.038 | Cc1c(-c2c(-c3ccc(F)o3)sc3ncnc(NC(Cc4ccccc4O)C(=O)O)c23)ccc(OCCN2CCN(C)CC2)c1Cl [Example 14, N-[(5Sa)-5-{3-chloro-2-methyl-4-[2-(4-methylpiperazin-1-yl)ethoxy]phenyl}-6-(5-fluorofuran-2-yl)thieno[2,3-d]pyrimidin-4-yl]-2-hydroxy-D-phenylalanine] | 721 |  |
| 0.013 | CCCCn1nccc1COc1ccccc1CC(Nc1ncnc2sc(-c3ccc(F)cc3)c(-c3ccc(OCCN4CCN(C)CC4)c(Cl)c3C)c12)C(=O)O [Example 6, 2-[(1-butyl-1H-pyrazol-5-yl)methoxy]-N-[(5Sa)-5-{3-chloro-2-methyl-4-[2-(4-methylpiperazin-1-yl)ethoxy]phenyl}-6-(4-fluorophenyl)thieno[2,3-d]pyrimidin-4-yl]-D-phenylalanine] | > 600 |  |
| 0.127 | COc1ccccc1CC(Nc1ncnc2sc(-c3ccc(F)cc3)c(-c3ccc(OCCN4CCN(C)CC4)c(Cl)c3C)c12)C(=O)O [Example 1, N-[(5Sa)-5-{3-chloro-2-methyl-4-[2-(4-methylpiperazin-1-yl)ethoxy]phenyl}-6-(4-fluorophenyl)thieno[2,3-d]pyrimidin-4-yl]-2-methoxy-D-phenylalanine] | > 600 |  |
| 0.007 | Cc1c(-c2c(-c3ccc(F)cc3)sc3ncnc(NC(Cc4ccccc4OCc4ccnc(-c5ccccc5F)n4)C(=O)O)c23)ccc(OCCN(C)C)c1Cl [Example 50, N-[(5Sa)-5-{3-chloro-4-[2-(dimethylamino)ethoxy]-2-methylphenyl}-6-(4-fluorophenyl)thieno[2,3-d]pyrimidin-4-yl]-2-{[2-(2-fluorophenyl)pyrimidin-4-yl]methoxy}-D-phenylalanine] | > 150 |  |
| 0.006 | CCn1nccc1COc1ccccc1CC(Nc1ncnc2sc(-c3ccc(F)o3)c(-c3ccc(OCCN4CCN(C)CC4)c(Cl)c3C)c12)C(=O)O [Example 21, N-[(5Sa)-5-{3-chloro-2-methyl-4-[2-(4-methylpiperazin-1-yl)ethoxy]phenyl}-6-(5-fluorofuran-2-yl)thieno[2,3-d]pyrimidin-4-yl]-2-[(1-ethyl-1H-pyrazol-5-yl)methoxy]-D-phenylalanine] | 39.7 |  |
